Test results published in patent US20040116456A1, “Remedies for psychoneurosis” (priority 2001, published 2004).
Where a name gives a salt, the structure may show the parent alone.

Test system: restless legs syndrome
Experiment: Oral preparation given to patients diagnosed with restless legs syndrome
Format: in vivo, human
Conditions: 10 μg oral soft capsule; for time until abnormal sensation disappeared after taking the preparation: RLS patient
Description: A solution containing 10 μg of (−)-17-(cyclopropylmethyl)-3,14β-dihydroxy-4,5α-epoxy-6β[N-methyl-trans-3-(3-furyl)acrylamide]morphinan hydrochloric acid salt 1 [drawing 10]
was encapsulated into a soft capsule made of gelatin to obtain an oral preparation. This oral preparation was administered to two patients who had been diagnosed as restless legs syndrome. Both of the two patients complained abnormal itchy sensation on the lower limbs and sleep is sometimes disturbed. By taking the oral preparation, the abnormal sensation disappeared 2 hours after taking the preparation in one patient, and 4 hours after taking the preparation in another patient.

CN(C(=O)/C=C/c1ccoc1)[C@@H]1CC[C@@]2(O)C3Cc4ccc(O)c5c4[C@@]2(CCN3CC2CC2)[C@H]1O5 (single isomer, unassigned; (-)) [Compound 1, (−)-17-(cyclopropylmethyl)-3,14β-dihydroxy-4,5α-epoxy-6β[N-methyl-trans-3-(3-furyl)acrylamide]morphinan hydrochloric acid salt]
time until abnormal sensation disappeared after taking the preparation (another patient): 4 h
time until abnormal sensation disappeared after taking the preparation (one patient): 2 h
duration of the effect for eliminating the abnormal sensation (both of the two RLS patients): ≥ 24 h
sleep disturbance in the night (both of the two RLS patients): sleep disturbance did not occur
therapeutic effect against restless legs syndrome (two RLS patients): clearly had therapeutic effect against restless legs syndrome
